Read-outs that look alike come from different tables or passages of the source. Marks after values point to notes of the source that are not given here.
How the values were obtained:
AAMU-Ab = assay: Competitive antigen ELISA, cross-reactivity of AAMU-Ab; assay type: binding, rabbit; conditions: for % Cross-Reaction AAMU-Ab: competitive antigen ELISA, 0 = absence of inhibition or inhibition no higher than 40% at highest concentration tested (5×10^−3 M)
Procedure: (§1) Buffers and water without additives are filtered through millipore filters and kept for 1 week. BSA, antibodies, Tween™ 20 and horse radish peroxidase conjugates are added to these buffers and water just prior to use. Urine samples are usually collected 4 hours after drinking a cup of coffee (instant or brewed with approximately 100 mg of caffeine per cup) and stored at −80° C. The urine samples are diluted 10 times with sodium phosphate buffer (620 mosm, pH 7.50) and are subsequently diluted with water to give concentrations of AAMU and 1X no higher than 3×10^−6 M in the ELISA. All the pipettings are done with an eight-channel pipette, except those of the antibody and sample solutions. Starting with the last well, 100 μL of a carbonate buffer (100 mM, pH 9.6) containing 2.5 μg mL-1 antibodies are added to each well. After 90 min. at room temperature, the wells are washed three times with […] of TPB: isotonic sodium phosphate buffer (310 mosm, pH 7.50) containing 0.05% Tween™ 20.
(§2) After the initial wash, unoccupied sites are blocked by incubation for 90 min. at room temperature with 100 μL TBP containing 3% BSA. The wells are washed four times with 100 μL TPB. […] The microplate is gently shaken with an orbital shaker at room temperature for 3-4 hours. The wells are washed three times with 100 μL TPB containing 1% BSA and three times with water containing 0.05% Tween™ 20. To the washed plate is added 150 μL of a substrate buffer composed of citric acid (25 mM) and sodium phosphate dibasic buffer (50 mM, pH 5.0) containing 0.06% hydrogen peroxide and 0.04% o-phenylenediamine hydrochloride.
(§3) Buffers and water without additives were filtered through millipore filters and kept for 1 week. BSA, antibodies, Tween™ 20 and horse radish peroxidase conjugates were added to these buffers and water just prior to use. Urine samples were usually collected 4 hours after drinking a cup of coffee (instant or brewed with approximately 100 mg of caffeine per cup) and stored at −80° C. They were diluted 10 times with sodium phosphate buffer (620 mosm, pH 7.50) and were subsequently diluted with water to give concentrations of AAMU and 1X no higher than 3×10^−6 M in the ELISA. All the pipettings were done with an eight-channel pipette, except those of the antibody and sample solutions. Starting with the last well, 100 μL of a carbonate buffer (100 mM, pH 9.6) containing 2.5 μg mL-1 antibodies was pipetted. After 90 min. at room temperature, the wells were washed three times with 100 μL of TPB: isotonic sodium phosphate buffer (310 mosm, pH 7.50) containing 0.05% Tween™ 20.
(§4) After the initial wash, unoccupied sites were blocked by incubation for 90 min. at room temperature with 100 μL TBP containing 3% BSA. The wells were washed four times with 100 μL TPB. […] The microplate was gently shaken with an orbital shaker at room temperature for 3-4 hours. The wells were washed three times with 100 μL with TPB containing 1% BSA and three times with water containing 0.05% Tween™ 20. To the washed plate was added 150 μL of a substrate buffer composed of citric acid (25 mM) and sodium phosphate dibasic buffer (50 mM, pH 5.0) containing 0.06% hydrogen peroxide and 0.04% o-phenylenediamine hydrochloride. After 20 min. at room temperature with shaking, the reaction was stopped with 50 μL of 2.5 N HCl.
(§5) The cross reactivities of AAMU-Ab and 1X-Ab were tested using a wide variety of caffeine metabolites and structural analogs (Table 5 below).

1X-Ab = assay: Competitive antigen ELISA, cross-reactivity of 1X-Ab; assay type: binding, rabbit; conditions: for % Cross-Reaction 1X-Ab: competitive antigen ELISA, 0 = absence of inhibition or inhibition no higher than 40% at highest concentration tested (5×10^−3 M)
Procedure: as §1, §2, §3, §4, §5

[1] = cited from earlier work

| Compound | % Cross-Reaction AAMU-Ab (AAMU-Ab) | % Cross-Reaction 1X-Ab (1X-Ab) [%] | adverse reactions to dapsone ([1]; fast acetylators) [%] | adverse reactions to dapsone ([1]; slow acetylators) [%] | IC50 (AAMU-Ab; read-out: concentration required for 50% inhibition in the competitive antigen ELISA, AAMU-Ab) [µM] | IC50 (1X-Ab; read-out: concentration required for 50% inhibition in the competitive antigen ELISA, 1X-Ab) [µM] |
| --- | --- | --- | --- | --- | --- | --- |
| Nc1nc2nc[nH]c2c(=O)[nH]1 [Guanine] | 0% | 0 | – | – | – | – |
| O=c1[nH]c(=O)c2[nH]cnc2[nH]1 [Xanthine] | 0^a % | 0 | – | – | – | – |
| Cn1cnc2[nH]c(=O)[nH]c(=O)c21 [7-Methyl Xanthine] | 0% | 0 | – | – | – | – |
| Nc1ccc(S(=O)(=O)c2ccc(N)cc2)cc1 [dapsone] | – | – | 17 | 46 | – | – |
| Cn1c(=O)[nH]c(=O)c2[nH]cnc21 [3-Methyl Xanthine] | 0% | 0 | – | – | – | – |
| Cn1cnc2c1c(=O)[nH]c(=O)n2C [3,7-Dimethyl Xanthine (Theobromine), 3,7-Dimethyl Xanthine] | 0% | 0 | – | – | – | – |
| O=c1[nH]cnc2nc[nH]c12 [Hypoxanthine] | 0% | 0 | – | – | – | – |
| Cn1c(=O)c2c(ncn2C)n(C)c1=O [1,3,7-Trimethyl Xanthine (Caffeine), 1,3,7-Trimethyl Xanthine] | 0% | 0 | – | – | – | – |
| CC(=O)Nc1c(N)n(C)c(=O)[nH]c1=O [5-Acetamino-6-amino-1-methyluracil] | 100% | 0 | – | – | 1.5 | – |
| Cc1nc2[nH]c(=O)[nH]c(=O)c2[nH]1 [8-Methyl Xanthine] | 0% | 0 | – | – | – | – |
| Cn1c(=O)[nH]c2nc[nH]c2c1=O [1-Methyl Xanthine (1X), 1-Methyl Xanthine] | 0% | 100 | – | – | – | 10 |
| O=c1[nH]c(=O)c2[nH]c(=O)[nH]c2[nH]1 [Uric acid] | 0% | 0 | – | – | – | – |
| CC(=O)Nc1c(N)n(C)c(=O)n(C)c1=O [5-Acetamino-6-amino-1,3-dimethyluracil] | 0% | 0 | – | – | – | – |
| Cn1c(=O)c2[nH]cnc2n(C)c1=O [1,3-Dimethyl Xanthine (Theophylline), 1,3-Dimethyl Xanthine] | 0% | 0.2 | – | – | – | – |
| CC(=O)Nc1c(N)[nH]c(=O)[nH]c1=O [5-Acetamino-6-amino-uracil] | 0.6% | 0 | – | – | – | – |
| O=c1cc[nH]c(=O)[nH]1 [Uracil] | 0% | 0 | – | – | – | – |
| Cn1c(=O)[nH]c2[nH]c(=O)[nH]c2c1=O [1-Methyluric acid] | 0% | 11 | – | – | – | – |
| Cn1c(=O)[nH]c2ncn(C)c2c1=O [1,7-Dimethyl Xanthine (Paraxanthine), 1,7-Dimethyl Xanthine] | 0% | 0.5 | – | – | – | – |
| Cn1c(=O)[nH]c2[nH]c(=O)n(C)c2c1=O [1,7-Dimethyluric acid] | 0% | 0 | – | – | – | – |

Source: patent US20030072710A1, “Individualization of therapy with antidepressants” (McGill University, priority 2001, published 2003)
